Assay results reported in patent US20260258064A1 (SIRONAX LTD., priority 2023, published 2026).

What follows are compounds tested against T1, SARM1 (50-724) (Homo sapiens, UniProt Q6SZW1) (assay: SARM1 (50-724) enzymatic assay (LC-MS/MS)). Conditions: Purified SARM1 (50-724) 2 nM, NMN as activator, NAD+ as substrate, 1 h at room temperature, read-out: IC50 (SARM1 inhibitory activity).
T1 construct: Purified SARM1 (50-724) with a final concentration of 2 nM was pre-incubated with a test compound
T1 sequence (Q6SZW1 50-724): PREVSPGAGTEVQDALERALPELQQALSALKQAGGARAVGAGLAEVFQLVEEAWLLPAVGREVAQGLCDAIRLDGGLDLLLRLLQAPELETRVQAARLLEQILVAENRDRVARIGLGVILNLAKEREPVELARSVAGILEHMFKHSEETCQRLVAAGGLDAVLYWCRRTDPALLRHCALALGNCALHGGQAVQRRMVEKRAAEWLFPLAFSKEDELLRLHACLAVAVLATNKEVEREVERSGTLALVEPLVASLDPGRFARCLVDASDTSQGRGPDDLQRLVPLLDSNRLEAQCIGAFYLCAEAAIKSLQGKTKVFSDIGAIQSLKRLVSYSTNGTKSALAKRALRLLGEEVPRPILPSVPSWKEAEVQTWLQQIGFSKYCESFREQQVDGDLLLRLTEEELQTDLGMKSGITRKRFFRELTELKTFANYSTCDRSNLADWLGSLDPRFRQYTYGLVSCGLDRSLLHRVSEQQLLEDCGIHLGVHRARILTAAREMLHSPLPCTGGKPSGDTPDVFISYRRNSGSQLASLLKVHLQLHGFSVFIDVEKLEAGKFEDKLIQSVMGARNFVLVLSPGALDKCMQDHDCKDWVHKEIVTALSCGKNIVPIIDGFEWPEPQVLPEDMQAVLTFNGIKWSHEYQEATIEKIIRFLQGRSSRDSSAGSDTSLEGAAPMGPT
Type: biochemical
How it was run: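 Reaction buffer was Dulbecco's PBS. Compound and 2 nM human SARM1 (50-724) were pre-incubated 15 min at room temperature, then […] NAD^+ and 200 µM NMN activator were added for 1 h at room temperature. Acetonitrile (70%) stop, LC-MS/MS read-out, IC50 values.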

| Structure (SMILES) | IC50 [nM] |
| --- | --- |
| OCCOc1ccc(OC(F)(F)F)c(-n2cnnc2-c2nc3cc(C(F)(F)F)ccc3[nH]2)n1 [Compound 250] | ≤ 100 |
| FC(F)C1(c2ccc3[nH]c(-c4nncn4-c4ccncc4OC(F)(F)F)nc3c2)CC1 [Compound 237] | ≤ 100 |
| FC(F)c1nnc(-c2nc3cc(C(F)(F)F)ccc3[nH]2)n1-c1cnccc1C(F)(F)F [Compound 306, 2-(5-(difluoromethyl)-4-(4-(trifluoromethyl)pyridin-3-yl)-4H-1,2,4-triazol-3-yl)-5-(trifluoromethyl)-1H-benzo[d]imidazole] | ≤ 100 |
| O=S1(=O)CC[C@@H](OC(F)(F)F)[C@H](n2cnnc2-c2nc3cc(C(F)(F)F)ccc3[nH]2)C1 (single isomer, unassigned) [Compound 288] | > 1000 |
| NC(=O)c1cc(Cl)c(Cl)c(-n2cnnc2-c2nc3cc(C(F)(F)F)ccc3[nH]2)c1 [Compound 174, 3,4-dichloro-5-(3-(5-(trifluoromethyl)-1H-benzo[d]imidazol-2-yl)-4H-1,2,4-triazol-4-yl)benzamide] | ≤ 100 |
| FC(F)(F)Oc1ccc(Oc2ncco2)cc1-n1cnnc1-c1nc2cc(C(F)(F)F)ccc2[nH]1 [Compound 281, 2-(4-(trifluoromethoxy)-3-(3-(5-(trifluoromethyl)-1H-benzo[d]imidazol-2-yl)-4H-1,2,4-triazol-4-yl)phenoxy)oxazole] | ≤ 100 |
| Cc1ccc2[nH]c(-c3cc(CO)cn3C3CCCC3)nc2c1 [Compound 16, (1-Cyclopentyl-5-(5-methyl-1H-benzo[d]imidazol-2-yl)-1H-pyrrol-3-yl)methanol] | 500 to 1000 |
| FC(F)Oc1ncccc1-n1cnnc1-c1nc2cc(C(F)(F)F)ccc2[nH]1 [Compound 235, 2-(4-(2-(difluoromethoxy)pyridin-3-yl)-4H-1,2,4-triazol-3-yl)-5-(trifluoromethyl)-1H-benzo[d]imidazole] | ≤ 100 |
| Fc1c(-c2nncn2-c2cnccc2C(F)(F)F)[nH]c2ccc(C(F)(F)F)cc12 [Compound 259, 3-fluoro-5-(trifluoromethyl)-2-(4-(4-(trifluoromethyl)pyridin-3-yl)-4H-1,2,4-triazol-3-yl)-1H-indole] | ≤ 100 |
| CC(c1cc(F)c2[nH]c(-c3nncn3-c3cnccc3C(F)(F)F)nc2c1)C(F)(F)F (stereo not drawn) [Compound 278, 7-fluoro-2-(4-(4-(trifluoromethyl)pyridin-3-yl)-4H-1,2,4-triazol-3-yl)-5-(1,1,1-trifluoropropan-2-yl)-1H-benzo[d]imidazole] | ≤ 100 |
| Cc1ccc2[nH]c(C3CCCN3c3cccc(Cl)c3Cl)nc2c1 (stereo not drawn) [Compound 13, 2-(1-(2,3-Dichlorophenyl)pyrrolidin-2-yl)-5-methyl-1H-benzo[d]imidazole] | > 1000 |
| NC(=O)C1CC1c1ccc2[nH]c(-c3nncn3-c3cnccc3C(F)(F)F)nc2c1F (stereo not drawn) [Compound 321, 2-(4-fluoro-2-(4-(4-(trifluoromethyl)pyridin-3-yl)-4H-1,2,4-triazol-3-yl)-1H-benzo[d]imidazol-5-yl)cyclopropane-1-carboxamide] | ≤ 100 |
| CC1(C)CC1c1cc(F)c2[nH]c(-c3nncn3-c3cnccc3C(F)(F)F)nc2c1 (stereo not drawn) [Compound 347, 5-(2,2-dimethylcyclopropyl)-7-fluoro-2-(4-(4-(trifluoromethyl)pyridin-3-yl)-4H-1,2,4-triazol-3-yl)-1H-benzo[d]imidazole] | ≤ 100 |
| O=S1(=O)CCN(c2ccc(Cl)c(-n3cnnc3-c3nc4cc(C(F)(F)F)ccc4[nH]3)n2)CC1 [Compound 201, 4-(5-chloro-6-(3-(5-(trifluoromethyl)-1H-benzo[d]imidazol-2-yl)-4H-1,2,4-triazol-4-yl)pyridin-2-yl)thiomorpholine 1,1-dioxide] | ≤ 100 |
| FC(F)c1ccncc1-n1cnnc1-c1nc2cc(C(F)(F)F)ccc2[nH]1 [Compound 252, 2-(4-(4-(difluoromethyl)pyridin-3-yl)-4H-1,2,4-triazol-3-yl)-5-(trifluoromethyl)-1H-benzo[d]imidazole] | ≤ 100 |
| CS(=O)(=O)Cc1cccc(OC(F)(F)F)c1-n1cnnc1-c1nc2cc(C(F)(F)F)ccc2[nH]1 [Compound 289, 2-(4-(2-((methylsulfonyl)methyl)-6-(trifluoromethoxy)phenyl)-4H-1,2,4-triazol-3-yl)-5-(trifluoromethyl)-1H-benzo[d]imidazole] | ≤ 100 |
| FC1(F)CN(c2c(Cl)ccc3[nH]c(-c4nncn4-c4cnccc4C(F)(F)F)nc23)C1 [Compound 358, 5-chloro-4-(3,3-difluoroazetidin-1-yl)-2-(4-(4-(trifluoromethyl)pyridin-3-yl)-4H-1,2,4-triazol-3-yl)-1H-benzo[d]imidazole] | 100 to 500 |
| O=C(O)c1cc(-n2cnnc2-c2nc3cc(C(F)(F)F)ccc3[nH]2)c(OC(F)(F)F)cn1 [Compound 266, 5-(trifluoromethoxy)-4-(3-(5-(trifluoromethyl)-1H-benzo[d]imidazol-2-yl)-4H-1,2,4-triazol-4-yl)picolinic acid] | ≤ 100 |
| CCC(O)(CC)c1ccc2[nH]c(-c3nncn3-c3ccc(F)c(F)c3Cl)nc2c1 [Compound 151, 3-(2-(4-(2-chloro-3,4-difluorophenyl)-4H-1,2,4-triazol-3-yl)-1H-benzo[d]imidazol-5-yl)pentan-3-ol] | ≤ 100 |

More lines, now with the values ahead:

| IC50 [nM] | Structure (SMILES) |
| --- | --- |
| ≤ 100 | OC1(c2ccc3[nH]c(-c4nncn4-c4cccc(Cl)c4Cl)nc3c2)CC1 [Example 133] |
| ≤ 100 | OC1(c2ccc3[nH]c(-c4nncn4-c4cccc(Cl)c4Cl)nc3c2)CCC1 [Example 111] |
| 100 to 500 | N#Cc1c(Cl)ccc2[nH]c(-c3nncn3-c3cccc(Cl)c3Cl)nc12 [Example 50, 5-chloro-2-(4-(2,3-dichlorophenyl)-4H-1,2,4-triazol-3-yl)-1H-benzo[d]imidazole-4-carbonitrile] |
| ≤ 100 | CC(c1ccncc1)c1cc(F)c2[nH]c(-c3nncn3-c3cnccc3C(F)(F)F)nc2c1 (stereo not drawn) [Compound 445, 7-fluoro-5-(1-(pyridin-4-yl)ethyl)-2-(4-(4-(trifluoromethyl)pyridin-3-yl)-4H-1,2,4-triazol-3-yl)-1H-benzo[d]imidazole] |
| ≤ 100 | FC(F)(F)c1ccncc1-n1cnnc1-c1nc2cc(C3CCCC3)ccc2[nH]1 [Compound 364, 5-cyclopentyl-2-(4-(4-(trifluoromethyl)pyridin-3-yl)-4H-1,2,4-triazol-3-yl)-1H-benzo[d]imidazole] |
| ≤ 100 | CCC(=O)c1cc(F)c2[nH]c(-c3nncn3-c3cnccc3C(F)(F)F)nc2c1 [Compound 452, 1-(4-fluoro-2-(4-(4-(trifluoromethyl)pyridin-3-yl)-4H-1,2,4-triazol-3-yl)-1H-benzo[d]imidazol-6-yl)propan-1-one] |
| 100 to 500 | Cn1cc(-c2cnccc2C(F)(F)F)c(-c2nc3cc(C(F)(F)F)c(Cl)cc3[nH]2)cc1=O [Compound 389, 4-(5-chloro-6-(trifluoromethyl)-1H-benzo[d]imidazol-2-yl)-1-methyl-4′-(trifluoromethyl)-[3,3′-bipyridin]-6(1H)-one] |
| ≤ 100 | Nc1nnc(-c2nc3cc(C(F)(F)F)ccc3[nH]2)n1-c1cccc(F)c1Cl [Compound 396, 4-(2-chloro-3-fluorophenyl)-5-(5-(trifluoromethyl)-1H-benzo[d]imidazol-2-yl)-4H-1,2,4-triazol-3-amine] |
| ≤ 100 | CC1CC(c2cc(F)c3[nH]c(-c4nncn4-c4cnccc4C(F)(F)F)nc3c2)CO1 (stereo not drawn) [Compound 423, 7-fluoro-5-(5-methyltetrahydrofuran-3-yl)-2-[4-[4-(trifluoromethyl)-3-pyridyl]-1,2,4-triazol-3-yl]-1H-benzimidazole] |
| ≤ 100 | CC(C)(O)c1ccc2[nH]c(-c3nncn3-c3cccc(Cl)c3Cl)nc2c1 [Example 96, 2-(2-(4-(2,3-dichlorophenyl)-4H-1,2,4-triazol-3-yl)-1H-benzo[d]imidazol-5-yl)propan-2-ol] |
| ≤ 100 | CC(NC12CC(C1)C2)c1cc(F)c2[nH]c(-c3nncn3-c3cnccc3C(F)(F)F)nc2c1 (stereo not drawn) [Compound 453, N-(1-(7-fluoro-2-(4-(4-(trifluoromethyl)pyridin-3-yl)-4H-1,2,4-triazol-3-yl)-1H-benzo[d]imidazol-5-yl)ethyl)bicyclo[1.1.1]pentan-1-amine] |
| 500 to 1000 | C[S+]([O-])c1c(Br)ccc2[nH]c(-c3nncn3-c3cccc(Cl)c3Cl)nc12 (stereo not drawn) [Example 94, 5-bromo-2-(4-(2,3-dichlorophenyl)-4H-1,2,4-triazol-3-yl)-4-(methylsulfinyl)-1H-benzo[d]imidazole] |
| ≤ 100 | FC(F)(F)c1ccc2[nH]c(-c3nnc(CN4CCC4)n3-c3cccc(Cl)c3Cl)nc2c1 [Example 125] |
| > 1000 | CS(=O)(=O)c1cccc(-n2cnnc2-c2nc3cc(C(F)(F)F)ccc3[nH]2)c1 [Example 52] |
